In patent US5932618A, “Anti-viral agents and methods relating to the use thereof” (Signal Pharmaceuticals, Inc., priority 1996, dated 1999):

What was measured:
[1] = system: HCMV viral DNA replication; assay: Viral DNA replication determined by dot blot analysis in stable clones; format: cell-based, HCMV (Towne strain); details: in presence of PAA (200-400 μg/ml), three different stable clones, data not shown
Experimental: The response of the integrated reporter plasmids to HCMV infection was also examined in the presence and absence of the well characterized viral DNA inhibitor phosphonoacetic acid (PAA, Sigma, St. Louis, Mo., 99.7 purity). The results are presented in FIG. 7 (P-luc), FIG. 8 (pol-luc) and FIG. 9 (pp28-luc). Cells were seeded into a 96 well plate in G418 selection media. The following day, cells were treated in the absence (lanes 1 and 4, panels B and C) or presence of PAA at 200 μg/mL (lanes 2 and 5, panels B and C) and 400 μg/mL (lanes 3 and 6, panels B and C). Cells were then superinfected with HCMV at 10 pfu/cell. Forty-eight hours post-infection, cells were harvested and isolated for either mRNA preparation, protein lysates or the luciferase assay. Luciferase activity measured as described above is shown in panels A of FIGS. 7-9. Northern analyses were performed on mRNA using probes for luciferase, MIEP-, pol- or pp28-specific mRNA and beta-actin mRNA to quantitate the amount of mRNA in each lane (panels B). Protein lysates were used for western blot analysis using antibody specific against luciferase (panels C). […] Viral DNA replication in presence of PAA was inhibited by nearly 90 percent as determined by dot blot analysis in three different stable clones (data not shown). […]

U373 MG cells = format: cell-based, human; details: PAA 200-400 μg/ml, MTS cytotoxicity assay, data not shown
[2] = system: HCMV pol promoter (pol-luc cells); assay: Luciferase reporter assay in pol-luc cells 48 hours after HCMV infection; format: cell-based; details: 48 hours after infection with 3 pfu/cell HCMV, increasing amounts of compound in DMSO
Experimental: The Pol promoter sequence, from position -425 to +15, was amplified by PCR using cosmid pCM1058 (Peter Ghazal) as template. The primers are: 5'-[…]-3' (sense primer), and 5'-[…]-3' (antisense primer). These oligo primers introduced a HindIII restriction site at the 5' and 3' end of Pol promoter fragment. The HindIII digested PCR fragment was inserted into HindIII digested pGL2-basic luciferase reporter plasmid (Promega, Madison, Wis.). The promoter direction was determined and PCR fidelity of the promoter sequence was confirmed by sequencing.
(§1) B. Establishment of Stable Cell Lines
(§2) The HCMV permissive human glioblastoma cell line U373 MG was transfected with the constructs described above. […]
(§3) Cells were infected with HCMV (Towne strain, obtained from American Type Culture Collection, Rockville, Md.) at 5-10 pfu/cell. […] Plates were read immediately in a Packard TopCount™ (Packard, Hartford, Conn.). Clones showing high luciferase inducibility were further analyzed by PCR to ascertain the integrity of the reporter transcriptional unit integrated into the genomic DNA. […]
(§4) Cells are maintained in DMEM (Mediatech, Herndon, Va.) supplemented with 10% fetal bovine serum (Gemini Bioproducts, Inc., Calabasas, Calif.), 1% antimycotic/antibiotic (GIBCO, Baltimore, Md.) and 0.6 μg/mL G148 (GIBCO, Baltimore, Md.). […] Luciferase activity (luminescence) in each well is then measured using a Packard Topcount™. […]

[3] = system: HCMV pp28 promoter (pp28-luc cells); assay: Luciferase reporter assay in pp28-luc cells 48 hours after HCMV infection; format: cell-based; details: 48 hours after infection with 3 pfu/cell HCMV, increasing amounts of compound in DMSO
From the text: The pp28 promoter sequence, from position -609 to +106, was amplified by PCR using cosmid pCM1 (Peter Ghazal, Scripps Research Institute) as a template. The oligonucleotide primer sequences are:
These oligonucleotides primers introduced a KpnI restriction site at the 5'-end and a HindIII site at the 3'-end of the pp28 promoter fragment. Unique sites, KpnI and HindIII allowed directional cloning into the pGL2-basic luciferase reporter plasmid (Promega, Madison, Wis.), resulting in the pp28-luc promoter construct shown in FIG. 2. The PCR fidelity of the pp28 promoter sequence was confirmed by sequencing.
B. Establishment of Stable Cell Lines […]
as §3, §4

[4] = system: MIEP viral immediate early promoter (MIEP-luc cells); assay: Luciferase reporter assay in MIEP-luc cells 48 hours after HCMV infection; format: cell-based; details: 48 hours after infection with 3 pfu/cell HCMV, increasing amounts of compound in DMSO
Experimental: The MIEP promoter sequence, from position -1145 to +122, was amplified by PCR using plasmid pSE as a template. The primers are: 5'-[…]-3' (sense primer), and 5'[…]-3' (antisense primer). These oligo primers introduced a KpnI restriction site at the 5' and 3' end of MIEP promoter fragment. The KpnI digested PCR fragment was inserted into KpnI digested pGL2-basic luciferase reporter plasmid (Promega, Madison, Wis.). The promoter direction was determined and PCR fidelity of the promoter sequence was confirmed by sequencing.
as §1, §2, §3, §4

[5] = system: β-actin cellular promoter (β-actin-luc cells); assay: Luciferase reporter assay in β-actin-luc cells 48 hours after HCMV infection; format: cell-based; details: 48 hours after infection with 3 pfu/cell HCMV, increasing amounts of compound in DMSO
Experimental: This Example illustrates the use of the cell lines of Example 1 for identifying inhibitors of viral gene expression.
Cells are maintained in DMEM (Mediatech, Herndon, Va.) supplemented with 10% fetal bovine serum (Gemini Bioproducts, Inc., Calabasas, Calif.), 1% antimycotic/antibiotic (GIBCO, Baltimore, Md.) and 0.6 μg/mL G148 (GIBCO, Baltimore, Md.). Cells are seeded at 3×10^4 cells per well in flat-bottom, tissue culture treated 96-well plates (Corning, Corning, N.Y.) and incubated for about 18 hours in a 37° C. humidified environment. Appropriately diluted candidate modulators are then added directly to the media on cells to a final concentration of 10 μg/mL, and the plates incubated for 30 minutes at 37° C. HCMV (Towne strain, ATCC) is then added at 3 pfu/cell. Forty-eight hours post-infection, the cells are washed once with PBS (without Ca^++ and Mg^++) and lysed in the 96-well plate. An aliquot of the cell lysate is then transferred to a black 96-well plate (Packard, Hartford, Conn.) and luciferase assay reagent (Promega, Madison, Wis.) is added to the plate. Luciferase activity (luminescence) in each well is then measured using a Packard Topcount™. […]
This Example illustrates anti-viral activity of representative compounds of this invention as determined in accordance with Examples 1-4 above. […]

## O=C(O)CP(=O)(O)O [PAA, phosphonoacetic acid]
[1]
  inhibition of viral DNA replication: ~90%
U373 MG cells
  toxicity to U373 MG cells: not toxic

## O=C(Nc1cccc([N+](=O)[O-])c1)c1cc(Cl)c2ccccc2c1O [compound (IV)]
[2]
  inhibition of luciferase reporter expressed from the HCMV pol promoter: specific inhibition
[3]
  inhibition of luciferase reporter expressed from the HCMV pp28 promoter: specific inhibition
[4]
  inhibition of reporter gene expressed from the MIEP viral immediate early promoter: no inhibition
[5]
  inhibition of reporter gene expressed from the β-actin cellular promoter: no inhibition

## COc1cc([N+](=O)[O-])ccc1NC(=O)c1cc(Cl)c2ccccc2c1O [compound (V)]
[2]
  inhibition of luciferase reporter expressed from the HCMV pol promoter: specific inhibition
[3]
  inhibition of luciferase reporter expressed from the HCMV pp28 promoter: specific inhibition
[4]
  inhibition of reporter gene expressed from the MIEP viral immediate early promoter: no inhibition
[5]
  inhibition of reporter gene expressed from the β-actin cellular promoter: no inhibition
